Laboratory results: article PMC5640650, “NatD promotes lung cancer progression by preventing histone H4 serine phosphorylation to activate Slug expression” (Nature Communications, 2017)

Assays:
[1] = test system: LLC cells; experiment: Expression of EMT genes, LLC cells; format: cell-based, murine; conditions: vs Scr
Procedure: (§1) Cellular proteins were extracted by RIPA lysis buffer at high salt concentration (420 mM NaCl), and western blot analysis was performed in accordance with standard protocols. Scans of enhanced chemiluminescence (ECL) films showing uncropped blots are presented in Supplementary Fig. 10. […]
(§2) Total RNA from tissue samples and cultured cells was extracted using TRIzol reagent (Invitrogen). cDNAs were synthesized with a HiScript 1st Strand cDNA Synthesis Kit (Vazyme Biotech, China). Quantitative RT-PCR was performed using a FastStart Universal SYBR Green Master (Roche) according to the manufacturer’s instructions in a Rotor-Gene 6000 (Corbett Research) in a final volume of 20 μl. […]
Representative blots from three independent experiments. […] (bottom) Cell migration and invasion expressed as a percentage of Scr control. […]
Results are shown as mean ± s.d. from 5 mice; two-tailed Student’s t-test, **P<0.01 compared to Scr control. (e) Quantitative real-time PCR analysis of mRNA levels of NatD and key EMT-related genes in Scr control and NatD-KD LLC cells normalized to GAPDH. […]

[2] = test system: A549 cells; experiment: Expression of EMT genes, A549 cells; format: cell-based, human; conditions: vs Scr
Procedure: as §1, §2
Supplementary Figure 4. […] (a) Quantitative real-time PCR analysis of mRNA levels of NatD, CCND1, p21, p27, p57, p16, p18, p19, CHEK2, E2F1, CCND2, KRAS, PTEN, c-Myc, and PCNA in scrambled (Scr) and NatD knockdown (NatD-KD) H1299 cells normalized to GAPDH. […] (b) Quantitative real-time PCR analysis of mRNA levels of NatD and key EMT-related genes in Scr and NatD-KD A549 cells normalized to […]
GAPDH served as a loading control. […] (bottom) Cell migration and invasion expressed as a percentage of control. […]

Substance: NatD-KD2: Human NatD shRNA KD2: 5′-GGTTGAATGTCTCCATTGA-3′, lentiviral (shRNA lentiviral)
- expression of E-cadherin [1]: increased the expression
- expression of Slug, N-cadherin, and Vimentin [1]: decreased the expression
- expression of E-cadherin [2]: increased the expression
- expression of Slug, N-cadherin, and Vimentin [2]: decreased the expression
